In ChEMBL document CHEMBL4483862, “Open-source discovery of chemical leads for next-generation chemoprotective antimalarials” (2018):
pIC50: −log10 of the molar value.

Test system: Plasmodium berghei
Assay: Luciferase/luciferin-expressing antifolate-resistant parasites were used to infect a culture of HepG2 cells that were pre-incubated with compounds. Infected hepatocytes emit light due to the luciferase reaction. Assay results are presented as the percent inhibition of light emission compared to control. […]
Type: functional
Conditions: sporozoite; for IC90: read-out: LUCIFERASE INFECTION ASSAY - IC90

SMILES: Cc1ccc(-c2cs/c(=N\c3cccnc3)n2CCCn2ccnc2)cc1C
- pIC50 (HEPG2TOX_HILL_SLOPE 0.267, HEPG2TOX_R_SQUARED 0.885, PBLUC_HILL_SLOPE 2.25, PBLUC_R_SQUARED 0.462, read-out: LUCIFERASE INFECTION ASSAY - IC50): 5.26
- IC90: > 10 µM

SMILES: CN1CCN(C(=O)c2ccc(-c3cnc4cnc(/C=C/c5ccccc5)cn34)cc2)CC1
- pIC50 (HEPG2TOX_HILL_SLOPE 0.285, HEPG2TOX_R_SQUARED 0.311, PBLUC_HILL_SLOPE 1.14, PBLUC_R_SQUARED 0.7, read-out: LUCIFERASE INFECTION ASSAY - IC50): 5.51
- IC90: > 7.79 µM

SMILES: Cc1ccc(Nc2ccc(S(=O)(=O)NC3=NCCCCC3)cc2[N+](=O)[O-])cc1
- pIC50 (HEPG2TOX_HILL_SLOPE 0.294, HEPG2TOX_R_SQUARED 0.717, PBLUC_HILL_SLOPE 0.103, PBLUC_R_SQUARED 0.0204, read-out: LUCIFERASE INFECTION ASSAY - IC50): < 5.00
- IC90: > 10 µM

SMILES: N=C1C(c2nc(-c3ccccc3)cs2)C(=O)CN1c1ccc2c(c1)OCCO2 (configuration not stated)
- pIC50 (HEPG2TOX_HILL_SLOPE 0.297, HEPG2TOX_R_SQUARED 0.47, PBLUC_HILL_SLOPE 1.65, PBLUC_R_SQUARED 0.172, read-out: LUCIFERASE INFECTION ASSAY - IC50): < 5.07
- IC90: > 8.43 µM

SMILES: Cc1ccc(O)c(C(=O)NCCC(C)C)c1
- pIC50 (HEPG2TOX_HILL_SLOPE 0.253, HEPG2TOX_R_SQUARED 0.657, PBLUC_HILL_SLOPE 0.85, PBLUC_R_SQUARED 0.659, read-out: LUCIFERASE INFECTION ASSAY - IC50): 5.63
- IC90: > 10 µM

SMILES: COc1ccc2cc(CN(C)CC(=O)Nc3sccc3C(N)=O)ccc2c1
- pIC50 (HEPG2TOX_HILL_SLOPE 0.237, HEPG2TOX_R_SQUARED 0.621, PBLUC_HILL_SLOPE 9.54, PBLUC_R_SQUARED 0.647, read-out: LUCIFERASE INFECTION ASSAY - IC50): 5.41
- IC90: 4.94 µM

SMILES: O=C(Nc1ccc2nc(-c3ccccc3Cl)[nH]c2c1)c1ccc(=O)[nH]n1
- pIC50 (HEPG2TOX_HILL_SLOPE 0.281, HEPG2TOX_R_SQUARED 0.366, PBLUC_HILL_SLOPE 7.23, PBLUC_R_SQUARED 0.542, read-out: LUCIFERASE INFECTION ASSAY - IC50): 5.45
- IC90: 4.84 µM

SMILES: Cc1ccc(C)c(S(=O)(=O)Oc2ccccc2C(=O)OCC(=O)c2c(C)[nH]c3ccccc23)c1
- pIC50 (HEPG2TOX_HILL_SLOPE 0.276, HEPG2TOX_R_SQUARED 0.379, PBLUC_HILL_SLOPE 12.5, PBLUC_R_SQUARED 0.167, read-out: LUCIFERASE INFECTION ASSAY - IC50): < 5.00
- IC90: > 10 µM

SMILES: COc1ccc(-c2nnc3ccc(-c4ccc5ncccc5c4)cn23)cc1OC
- pIC50 (HEPG2TOX_HILL_SLOPE 0.239, HEPG2TOX_R_SQUARED 0.342, PBLUC_HILL_SLOPE 2.22, PBLUC_R_SQUARED 0.642, read-out: LUCIFERASE INFECTION ASSAY - IC50): 7.61
- IC90: 0.0668 µM

SMILES: FC(F)(F)Oc1cccc(-c2nc3ccnc(NCc4ccccn4)c3[nH]2)c1
- pIC50 (HEPG2TOX_HILL_SLOPE 0.276, HEPG2TOX_R_SQUARED 0.811, PBLUC_HILL_SLOPE 0.809, PBLUC_R_SQUARED 0.487, read-out: LUCIFERASE INFECTION ASSAY - IC50): 5.69
- IC90: > 10 µM

SMILES: CCCn1nc(C(=O)Nc2ccccc2N2CCc3ccccc3C2)ccc1=O
- pIC50 (HEPG2TOX_HILL_SLOPE 0.246, HEPG2TOX_R_SQUARED 0.177, PBLUC_HILL_SLOPE 1.82, PBLUC_R_SQUARED 0.418, read-out: LUCIFERASE INFECTION ASSAY - IC50): 5.37
- IC90: > 10 µM

SMILES: CC(CCc1ccccc1)Nc1ccc(S(N)(=O)=O)cc1[N+](=O)[O-] (configuration not stated)
- pIC50 (HEPG2TOX_HILL_SLOPE 0.279, HEPG2TOX_R_SQUARED 0.54, PBLUC_HILL_SLOPE 1.88, PBLUC_R_SQUARED 0.412, read-out: LUCIFERASE INFECTION ASSAY - IC50): 5.06
- IC90: > 10 µM

SMILES: O=S(=O)(c1ccccc1)c1nc(Nc2ccc(F)cc2F)sc1Cl
- pIC50 (HEPG2TOX_HILL_SLOPE 0.283, HEPG2TOX_R_SQUARED 0.886, PBLUC_HILL_SLOPE 3.77, PBLUC_R_SQUARED 0.219, read-out: LUCIFERASE INFECTION ASSAY - IC50): 5.14
- IC90: > 10 µM

SMILES: COc1ccc(CN2C(=O)N(CC(C)C)C3(CCN(CCCc4ccccc4)CC3)C2=O)cc1
- pIC50 (HEPG2TOX_HILL_SLOPE 0.288, HEPG2TOX_R_SQUARED 0.281, PBLUC_HILL_SLOPE 3.96, PBLUC_R_SQUARED 0.368, read-out: LUCIFERASE INFECTION ASSAY - IC50): 5.55
- IC90: 4.86 µM

SMILES: Cc1csc2sc(COC(=O)Nc3ccccc3)c(C)c12
- pIC50 (HEPG2TOX_HILL_SLOPE 0.302, HEPG2TOX_R_SQUARED 0.714, PBLUC_HILL_SLOPE 1.42, PBLUC_R_SQUARED 0.482, read-out: LUCIFERASE INFECTION ASSAY - IC50): 5.05
- IC90: > 10.4 µM

SMILES: C=C1c2ccccc2N=C(SC(C)C(=O)Nc2ccccc2)N1C (configuration not stated)
- pIC50 (HEPG2TOX_HILL_SLOPE 0.246, HEPG2TOX_R_SQUARED 0.527, PBLUC_HILL_SLOPE 4.19, PBLUC_R_SQUARED 0.571, read-out: LUCIFERASE INFECTION ASSAY - IC50): 5.39
- IC90: 6.88 µM

SMILES: CCCCCC(=O)Nc1ccc(C2=Nn3c(Cc4cccc5ccccc45)nnc3SC2)cc1
- pIC50 (HEPG2TOX_HILL_SLOPE 0.272, HEPG2TOX_R_SQUARED 0.219, PBLUC_HILL_SLOPE 1.92, PBLUC_R_SQUARED 0.644, read-out: LUCIFERASE INFECTION ASSAY - IC50): 5.15
- IC90: > 10 µM

SMILES: Cc1ccc(/C=C2\CCc3c2nc2ccccc2c3C(=O)OCC#N)cc1
- pIC50 (HEPG2TOX_HILL_SLOPE 0.309, HEPG2TOX_R_SQUARED 0.18, PBLUC_HILL_SLOPE 16.5, PBLUC_R_SQUARED 0.242, read-out: LUCIFERASE INFECTION ASSAY - IC50): 7.89
- IC90: 0.0147 µM

SMILES: CNc1ncnc(NNC(=O)Nc2ccccc2)c1[N+](=O)[O-]
- pIC50 (HEPG2TOX_HILL_SLOPE 0.255, HEPG2TOX_R_SQUARED 0.589, PBLUC_HILL_SLOPE 1.34, PBLUC_R_SQUARED 0.392, read-out: LUCIFERASE INFECTION ASSAY - IC50): 5.22
- IC90: > 10.9 µM

SMILES: O=C(COC(=O)c1c2c(nc3ccccc13)CCCC2)Nc1ccccc1
- pIC50 (HEPG2TOX_HILL_SLOPE 0.267, HEPG2TOX_R_SQUARED 0.55, read-out: LUCIFERASE INFECTION ASSAY - IC50): < 5.00
- IC90: > 10 µM

SMILES: N#C/C(C(=O)c1ccc([N+](=O)[O-])s1)=C1\Nc2ccccc2S1
- pIC50 (HEPG2TOX_HILL_SLOPE 0.276, HEPG2TOX_R_SQUARED 0.471, PBLUC_HILL_SLOPE 0.885, PBLUC_R_SQUARED 0.549, read-out: LUCIFERASE INFECTION ASSAY - IC50): 6.02
- IC90: > 10 µM

SMILES: CCOc1cc(/C=C/C(=O)c2cccs2)cc(Br)c1OC
- pIC50 (HEPG2TOX_HILL_SLOPE 0.301, HEPG2TOX_R_SQUARED 0.1, PBLUC_HILL_SLOPE 0.921, PBLUC_R_SQUARED 0.199, read-out: LUCIFERASE INFECTION ASSAY - IC50): < 5.00
- IC90: > 10 µM

SMILES: C(=C\c1cn2c(-c3cccnc3)cnc2cn1)/c1ccccc1
- pIC50 (HEPG2TOX_HILL_SLOPE 0.303, HEPG2TOX_R_SQUARED 0.424, PBLUC_HILL_SLOPE 9.4, PBLUC_R_SQUARED 0.254, read-out: LUCIFERASE INFECTION ASSAY - IC50): 5.05
- IC90: > 11.1 µM

SMILES: Cc1ccc(-n2c(Sc3ccc([N+](=O)[O-])c4cnccc34)nnc2-c2ccccc2)cc1C
- pIC50 (HEPG2TOX_HILL_SLOPE 0.296, HEPG2TOX_R_SQUARED 0.243, PBLUC_HILL_SLOPE 1.34, PBLUC_R_SQUARED 0.0191, read-out: LUCIFERASE INFECTION ASSAY - IC50): < 5.00
- IC90: > 10 µM

SMILES: CS(=O)(=O)Nc1cccc(-c2cnc(N)c(-c3cccc(C(F)(F)F)c3)c2)c1
- pIC50 (HEPG2TOX_HILL_SLOPE 0.275, HEPG2TOX_R_SQUARED 0.333, PBLUC_HILL_SLOPE 1.7, PBLUC_R_SQUARED 0.794, read-out: LUCIFERASE INFECTION ASSAY - IC50): 7.70
- IC90: 0.0724 µM

SMILES: CC(Nc1ccc2c(c1)CCC2)C(=O)Nc1sccc1C(N)=O (configuration not stated)
- pIC50 (HEPG2TOX_HILL_SLOPE 0.241, HEPG2TOX_R_SQUARED 0.874, PBLUC_HILL_SLOPE 11.9, PBLUC_R_SQUARED 0.588, read-out: LUCIFERASE INFECTION ASSAY - IC50): 5.84
- IC90: 1.74 µM

SMILES: O=C(Cn1cnc2sccc2c1=O)Nc1nc(-c2ccccn2)cs1
- pIC50 (HEPG2TOX_HILL_SLOPE 0.285, HEPG2TOX_R_SQUARED 0.277, PBLUC_HILL_SLOPE 15.4, PBLUC_R_SQUARED 0.28, read-out: LUCIFERASE INFECTION ASSAY - IC50): 5.03
- IC90: > 10 µM

SMILES: NS(=O)(=O)c1ccc(-n2ncc(Nc3ccc(F)cc3)c(Cl)c2=O)cc1
- pIC50 (HEPG2TOX_HILL_SLOPE 0.263, HEPG2TOX_R_SQUARED 0.596, PBLUC_HILL_SLOPE 7.27, PBLUC_R_SQUARED 0.0377, read-out: LUCIFERASE INFECTION ASSAY - IC50): < 5.00
- IC90: > 10 µM

SMILES: COc1ccccc1-n1c(SCCn2c([N+](=O)[O-])cnc2C)nc2sc3c(c2c1=O)CCCC3
- pIC50 (HEPG2TOX_HILL_SLOPE 0.275, HEPG2TOX_R_SQUARED 0.775, PBLUC_HILL_SLOPE 12.8, PBLUC_R_SQUARED 0.595, read-out: LUCIFERASE INFECTION ASSAY - IC50): 5.47
- IC90: 4.01 µM

SMILES: Cc1sc2ncnc(SCC(=O)N3N=C4/C(=C/c5ccccc5)CCCC4C3c3ccccc3)c2c1C (configuration not stated)
- pIC50 (HEPG2TOX_HILL_SLOPE 0.257, HEPG2TOX_R_SQUARED 0.0474, read-out: LUCIFERASE INFECTION ASSAY - IC50): < 5.00
- IC90: > 10 µM

SMILES: Cc1nnc(NC(=O)c2cn(-c3ccccc3)nc2-c2ccccc2C)o1
- pIC50 (HEPG2TOX_HILL_SLOPE 0.258, HEPG2TOX_R_SQUARED 0.871, PBLUC_HILL_SLOPE 2.72, PBLUC_R_SQUARED 0.839, read-out: LUCIFERASE INFECTION ASSAY - IC50): 6.94
- IC90: 0.255 µM
